From article PMC11675744, “Grape Pomace as a Source of Phenolics for the Inhibition of Starch Digestion Enzymes: A Comparative Study and Standardization of the Efficacy” (Foods, 2024)

Target: T1, rat intestinal α-glucosidase
T1 construct: gene Mgam; crude supernatant of rat intestinal acetone powder (Sigma N1377-5G), brush border enzymes, not purified
Assay: p-nitrophenol release, absorbance […] nm, five-point dose-response
Type: biochemical
Conditions: substrate p-nitrophenyl α-D-glucoside (1 mM stock, 200 µL in 1 mL), phosphate pH 6.8, 37 °C, 5 min pre-incubation; crude extract

## C[C@H]1O[C@H](O[C@H]2[C@H](O)[C@@H](O)[C@@H](O[C@H]3[C@H](O)[C@@H](O)C(O)O[C@@H]3CO)O[C@@H]2CO)[C@H](O)[C@@H](O)[C@@H]1N[C@H]1C=C(CO)[C@@H](O)[C@H](O)[C@H]1O (stereo partly shown) [acarbose]
  I50: 100 µg/mL
